In patent publication US9737077B2, “Method for controlling sexuality of hop” (priority 2011, dated 2017):
Entries after “also recorded” stand apart in the source; their conditions may differ. Read-outs that look alike come from different tables or passages of the source.

Legend:
hop female plant = details: spraying 500 ppm (Non Patent Literature 1); cited from earlier work
Cannabis sativa = details: cited from earlier work
[1] = test system: hop variety Kirin No. 2 (female plant); test: Forming a male flower on a female plant bred in a greenhouse (Part 3), different chemicals
Experimental: An over-wintering plant or strain of the hop variety “Kirin No. 2” was cultivated in the same manner as in Example 2.
Silver thiosulfate (STS) was prepared by mixing sodium thiosulfate pentahydrate and silver nitrate in a molar ratio of 8:1. An area to which water was applied was arranged as a control area.
Flower buds were observed from the beginning of July and the sexuality was determined from the mid-July.

[2] = test system: female plant of Momordica dioica; details: Non Patent Literature 7; cited from earlier work

CC(Sc1ccccc1Cl)C(=O)[O-].[Na+] (stereo not drawn) [α (2-chlorophenylthio)propionic acid, sodium salt]
flower formed on hop female plant (hop female plant): a male flower was formed

silver thiosulfate complex [STS]
flowers formed on main and lateral branches (Cannabis sativa; in vivo): an intersex flower, an incomplete male flower with few stamens or a complete male flower, together with female flowers, were formed | condition of applied leaves and growth ([1]; in vivo): the applied leaves were partially browned but continued growing | flower sexuality observed ([1]; in vivo): the female flowers were predominantly observed but the male flowers were observed in part; also recorded: male flowers formed; also recorded: female flowers and male flowers

O=[N+]([O-])[O-].[Ag+] [silver nitrate]
flower formed on female plant [2]: a hermaphrodite flower is formed | flowers formed on main and lateral branches (Cannabis sativa; applied to a growing shoot tip (Non Patent Literature 8)): an intersex flower, an incomplete male flower with few stamens or a complete male flower, together with female flowers, were formed | flower sexuality observed ([1]; 8 mM, leaf application 4 times about every 10 days, greenhouse): the female flowers were predominantly observed but the male flowers were observed in part; also recorded: female flowers and male flowers | flower sexuality observed ([1]; 16 mM, leaf application 4 times about every 10 days, greenhouse): male flowers were observed; also recorded: male flowers formed | flower sexuality observed ([1]; 32 mM, leaf application 4 times about every 10 days, greenhouse): male flowers were observed; also recorded: male flowers formed | condition of applied leaves and growth ([1]; all treated areas (all concentrations applied), greenhouse): the applied leaves were partially browned but continued growing
